In patent US20260355184A1, “SMALL MOLECULE DEGRADERS OF HIV-1 TAT PROTEIN” (priority 2022, published 2026):
“Also recorded” adds a separate entry of the source.

Tests used:
Tat or GFP mRNA = Tat or GFP mRNA expression in HEK293T cells; type: cell-based; conditions: n=3
HIV Tat = experiment: Tat-TAR assay (HIV LTR luciferase transactivation, PL11 cells); type: cell-based; conditions: for activity against Tat 86 a.a. from different HIV clades: HIV clade B, C and E, n=1; for IC50 against Tat 86 and 101 residues (comparison): Tat 86 a.a. vs 101 a.a.
From the text: Tat is a 14 kDa protein that is synthesized from an mRNA joined from 2 coding exons (FIG. 1B). The first exon encodes amino acids 1-72 and (in most strains of HIV), the second exon encodes amino acids 73-101. An N-terminal 86-amino acid form of Tat produced in a few laboratory-passaged virus strains is frequently used to study Tat. The classic cell-based Tat transactivation assay of the HIV LTR driving luciferase was optimized as a reporter gene for HTS9 (FIG. 2A). […] LTR activation is triggered by transfection of a plasmid expressing HIV-1HXB3 Tat (101 a.a.) driven by the phosphoglycerate (PGK) promoter.

HeLa-CD4-LTR-LacZ cells = experiment: Cytotoxicity assay, Cell-Titer-Glo, HeLa-CD4-LTR-LacZ; conditions: Cell-Titer-Glo in parallel to infectivity assay
Procedure, shortened: (§1)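 HeLa-CD4-LTR-LacZ reporter cells (β-Gal under HIV 5′ LTR) infected with HIV NL4.3; β-Gal activity read 72 h post infection, with parallel Cell-Titer-Glo viability. OM10.1 carry a single wild-type provirus; ACH-2 a single provirus with TAR C37T mutation, defective Tat-TAR feedback.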

[1] = as above; conditions: human, hela-cd4-ltr-lacz cells, Infectivity CC50, HeLa-CD4-LTR-LacZ
Procedure, shortened: as §1

GFP = experiment: Degradation assay control: GFP in HEK293T cells, western blot; type: cell-based
Method: Next, the effect of the three leads on the alteration of Tat steady state levels was assessed. Tat expression from an integrated provirus, or from HIV acute infection is generally too low to be detected by western blot. Furthermore, antibodies against Tat are known for their lack of avidity. Tat degradation was thus assessed upon transfection. Flag-Tat or Flag-GFP were individually transfected into HEK293T and 24 hrs later, TT-44856, TT-44863 or TT-44881 were added to the culture, followed by Western blot 24 hrs later (dubbed “degradation assay”) (FIG. 5A). […] Finally, the leads' impact on recombinant Tat protein in HEK293T cells was assessed (FIG. 5D). HEK293T cells were incubated with recombinant Tat for 4 hrs to allow Tat internalization, followed by several thorough washes to remove unincorporated Tat. Cells were then incubated with all three leads (or Triptolide) for an additional 2 hrs. Cells were lysed and analyzed by western blot with an anti-Tat serum.

OM10.1 cells [2] = experiment: SAHA mediated reactivation from latency in OM10.1 cells; type: cell-based, HIV; conditions: day 12 and day 32, vs DMSO+ARVs
OM10.1 cells [3] = experiment: Cell-associated HIV Gag mRNA expression / HIV transcription in latently infected OM10.1 cells; type: cell-based; conditions: 96-day period with ARVs, n=1
Method: (§2) Next, the activity of these leads against HIV infection was evaluated using the reporter cell line HeLa-CD4-LTR-LacZ, which stably expresses the β-galactosidase (β-Gal) gene under the control of the HIV 5′ LTR. The HIV NL4.3 strain was used for these studies and β-Gal activity was measured 72 hrs post infection (FIG. 3A). Cytotoxicity assays using Cell-Titer-Glo were performed in parallel to assess cell viability (FIG. 3A). […] Their anti-HIV activity was further assessed in acute replication of Jurkat T cells with the NL4.3 strain (FIG. 3A). […] These OM10.1 cells contain a single integrated wild-type provirus, while ACH-2 cells contain a single integrated provirus with a TAR mutation C37T, defective Tat-TAR feedback loop (FIG. 3B).

ACH-2 cells = experiment: Cell-associated HIV Gag mRNA expression / HIV transcription in latently infected ACH-2 cells; type: cell-based; conditions: ACH2; 96-day period with ARVs; n=1
Method: as §2

OM10.1 and ACH-2 cells = experiment: Toxicity / cell viability in latent cell models; conditions: OM10.1 and ACH2; 96-day period with ARVs
Method: as §2

[4] = test system: TAR-SIIB promoter (Flag-Tat-Rev fusion protein); experiment: Flag-Tat-Rev fusion protein transactivation of TAR-SIIB promoter; type: cell-based, HIV-1; conditions: SIIB reporter HEK293T
Method: FIG. 4. […] Shown is n=1. […] Shown is n=1. ARVs: antiretrovirals: 100 nM Efavirenz, 200 nM Lamivudine and 200 nM Raltegravir. C. […] SIIB: a reporter HEK293T stable cell line where the essential apical region of TAR was replaced by the 29-nucleotide stem-loop IIB (SIIB) subdomain of the HIV-1 RRE. A Tat-Rev fusion protein activates transcription of luciferase when Rev binds SIIB, bringing Tat and P-TEFb to RNAPII at the HIV promoter. Shown is mean±SEM of n=4.

ACH2 cells = experiment: SAHA mediated reactivation from latency in ACH2 cells; type: cell-based, HIV; conditions: text: day 12 and 32, FIG. 4B legend: day 12, vs DMSO+ARVs
[5] = target: Tat protein (ubiquitin chains) (Human immunodeficiency virus type 1 (HXB3 ISOLATE), UniProt P69698); experiment: Ubiquitin linkage assay: HA-Ubiquitin lysine mutants and Flag-Tat in HEK293T, western blot; type: cell-based, HIV; conditions: HA-Ubiquitin mutants, TT-44881 60 μM, 24 hours
From the text: FIG. 10. TT-44881's anti-HIV activity engages heterogenous lysine linked Ubiquitin chains (K48 and K33 chains). A. Example of covalent binding of the Ubiquitin chains to the lysine residues of the Tat protein. B. Schematic of the different Ubiquitin chains that can be linked to the Tat protein to induce its degradation or stabilization. C. […] HEK293T cells overexpressing HA-Ubiquitin proteins (which have each lysine singly mutated to arginine or only one lysine present) and Flag-Tat protein were treated with TT-44881. Western blot assays were performed 24 hours later. TT-44881: 60 μM. Shown is representative of n=3.
Which Ubiquitin linkage engaged in the TT-44881 degradation activity was also investigated. HEK293T cells were transfected with Tat protein and HA-Ubiquitin which has each lysine singly mutated to arginine or only one lysine present.

Sequence of Tat protein (ubiquitin chains) (P69698 whole entry): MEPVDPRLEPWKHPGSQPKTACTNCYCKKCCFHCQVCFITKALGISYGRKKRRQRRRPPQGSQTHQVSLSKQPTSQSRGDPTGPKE

SMILES | effect on Tat or GFP mRNA expression (Tat or GFP mRNA) | activity against Tat 86 a.a. from different HIV clades (HIV Tat) | IC50 against Tat 86 and 101 residues (comparison) (HIV Tat) | toxicity (HeLa-CD4-LTR-LacZ cells) | CC50 ([1]; analogs of TT-44856 (Table 3)) [µM] | effect on GFP expression (GFP) | SAHA mediated reactivation from latency (OM10.1 cells [2]) | HIV transcription (in words) (OM10.1 cells [3]) | HIV transcription (in words) (ACH-2 cells) | CC50 ([1]; analogs of TT-44863 (Table 2)) [µM] | cell viability (OM10.1 and ACH-2 cells) | Flag-Tat-Rev transactivation of TAR-SIIB [4] | SAHA mediated reactivation from latency (ACH2 cells) | ubiquitin chain linkages engaged in Tat degradation [5] | CC50 ([1]; analogs of TT-44881 (Table 1)) [µM]
CC(C(=O)NCCCn1ccnc1)(c1ccccc1)c1ccccc1 [TT-44856] | without affecting Flag-Tat mRNA levels | activity was confirmed | Equivalent IC50 | without signs of toxicity | > 100 | did not affect GFP expression |  |  |  |  |  |  |  |  | 
COCCOc1ccc(C(F)(F)F)cc1NC(=O)Cn1cc(C(F)(F)F)cc(Cl)c1=O [TT-44863] | without affecting Flag-Tat mRNA levels | activity was confirmed | Equivalent IC50 | without signs of toxicity |  | did not affect GFP expression | potently blocked SAHA mediated reactivation from latency | inhibit HIV transcription | inhibit HIV transcription | > 800 | without affecting cell viability | inhibit Tat-Rev fusion protein transactivation | potently blocked SAHA mediated reactivation from latency |  | 
O=C(CCCCN1CCCC1=O)c1nn(-c2ccccc2)c2c1CCC2 [TT-44881] | without affecting Flag-Tat mRNA levels | activity was confirmed | Equivalent IC50 | without signs of toxicity |  | did not affect GFP expression | potently blocked SAHA mediated reactivation from latency | inhibit HIV transcription | inhibit HIV transcription |  | without affecting cell viability | inhibit Tat-Rev fusion protein transactivation | potently blocked SAHA mediated reactivation from latency | K48-linked ubiquitin chains are involved in TT-44881 activity, K33 linked ubiquitin chains also seemed to be engaged; also recorded: blocks TT-44881 induced Tat degradation | > 100
